Reference: patent US6544991B2, “Compositions and methods for treating bacterial infections” (priority 2000, dated 2003)
Read-outs that look alike come from different tables or passages of the source.

Legend:
VRSA strains = assay: MIC by agar dilution or microbroth dilution method (NCCLS), VRSA strains; assay type: cell-based, Staph. aureus; details: VRSA strains (n = 10)
Procedure: (§1) Bacterial isolates were obtained from human infections. The isolates were maintained frozen in a liquid nitrogen freezer and plated on Trypticase Soy Agar (TSA) plates supplemented with 5% sheep blood. The quality control strain Staph. aureus 29213 was originally acquired from the American Type Culture Collection (Rockville, Md.).
(§2) MICs were determined by an agar dilution method or microbroth dilution method recommended by NCCLS. Synergy was assessed by agar dilution checker-board method. Minimal inhibitory concentrations (MICS) for each separate drug were determined. The fractional inhibitory concentration (FIC) values were calculated by the MIC of Drug A (e.g., sulbactam/ampicillin) and Drug B (e.g., linezolid or arbekacin) in combination/MIC of Drug A or B alone. The FIC index was determined according to the following formula: [formula]
In total, 48 MRSA strains were tested, including ten VRSA strains isolated from five different countries in the world, 33 MRSA strains isolated from ten Japanese university hospitals, and five MRSA type strains from Juntendo University, Department of Bacteriology, Tokyo, Japan.

Staph. aureus 29213 = assay: MIC, quality control strain; assay type: cell-based; details: for MIC: Staphylococcus aureus
Procedure: as §1, §2

MRSA strains = assay: MIC by agar dilution or microbroth dilution method (NCCLS); assay type: cell-based, Staph. aureus; details: for MIC: Staphylococcus aureus
Procedure: as §1, §2

## teicoplanin
VRSA strains
  MICs Range: 4 to 16 mg/L
Staph. aureus 29213; strain ATCC 29213, control sample (Ex. 26)
  MIC Values: 1 µg/mL
Staph. aureus 29213; strain ATCC29213, control sample (Ex. 37)
  MIC Values: 1 µg/mL
MRSA strains; MRSA strains (n = 38)
  MICs 50%: 1 mg/L
  MICs 90%: 2 mg/L
  MICs Range: 0.5 to 4 mg/L
MRSA strains; strain 85/2082
  MIC Values: 1 µg/mL
MRSA strains; strain 99.3700W
  MIC Values: 4 µg/mL
MRSA strains; strain 99.3759V
  MIC Values: 16 µg/mL
MRSA strains; strain AMC 11094
  MIC Values: 16 µg/mL
MRSA strains; strain BM12612(new)
  MIC Values: 4 µg/mL
MRSA strains; strain H1
  MIC Values: 4 µg/mL
MRSA strains; strain HIP 5827
  MIC Values: 16 µg/mL
MRSA strains; strain HIP 5836
  MIC Values: 8 µg/mL
MRSA strains; strain HIP 6297
  MIC Values: 4 µg/mL
MRSA strains; strain HIP 7737
  MIC Values: 16 µg/mL
MRSA strains; strain JSCC 340
  MIC Values: 1 µg/mL
MRSA strains; strain JSCC 351
  MIC Values: 1 µg/mL
MRSA strains; strain JSCC 363
  MIC Values: 1 µg/mL
MRSA strains; strain JSCC 381
  MIC Values: 1 µg/mL
MRSA strains; strain JSCC 390
  MIC Values: 1 µg/mL
MRSA strains; strain JSCC 401
  MIC Values: 2 µg/mL
MRSA strains; strain JSCC 413
  MIC Values: 2 µg/mL
MRSA strains; strain JSCC 431
  MIC Values: 0.5 µg/mL
MRSA strains; strain JSCC 440
  MIC Values: 2 µg/mL
MRSA strains; strain JSCC 451
  MIC Values: 2 µg/mL
MRSA strains; strain JSCC 463
  MIC Values: 1 µg/mL
MRSA strains; strain JSCC 481
  MIC Values: 2 µg/mL
MRSA strains; strain JSCC 490
  MIC Values: 2 µg/mL
MRSA strains; strain JSCC 501
  MIC Values: 2 µg/mL
MRSA strains; strain JSCC 513
  MIC Values: 1 µg/mL
MRSA strains; strain JSCC 531
  MIC Values: 1 µg/mL
MRSA strains; strain JSCC 540
  MIC Values: 1 µg/mL
MRSA strains; strain JSCC 551
  MIC Values: 1 µg/mL
MRSA strains; strain JSCC 563
  MIC Values: 2 µg/mL
MRSA strains; strain JSCC 581 (lacks the mecA gene)
  MIC Values: 8 µg/mL
MRSA strains; strain JSCC 590 (lacks the mecA gene)
  MIC Values: 8 µg/mL
MRSA strains; strain JSCC 601
  MIC Values: 1 µg/mL
MRSA strains; strain JSCC 640
  MIC Values: 1 µg/mL
MRSA strains; strain JSCC 651
  MIC Values: 2 µg/mL
MRSA strains; strain JSCC 663
  MIC Values: 1 µg/mL
MRSA strains; strain JSCC 681
  MIC Values: 0.5 µg/mL
MRSA strains; strain JSCC 690
  MIC Values: 1 µg/mL
MRSA strains; strain JSCC 701
  MIC Values: 1 µg/mL
MRSA strains; strain JSCC 713
  MIC Values: 2 µg/mL
MRSA strains; strain JSCC 731
  MIC Values: 1 µg/mL
MRSA strains; strain JSCC 740
  MIC Values: 1 µg/mL
MRSA strains; strain JSCC 751
  MIC Values: 1 µg/mL
MRSA strains; strain JSCC 763
  MIC Values: 1 µg/mL
MRSA strains; strain JSCC 781
  MIC Values: 4 µg/mL
MRSA strains; strain JSCC 870
  MIC Values: 1 µg/mL
MRSA strains; strain LIM 2
  MIC Values: 8 µg/mL
MRSA strains; strain Mu 3
  MIC Values: 8 µg/mL
MRSA strains; strain Mu 50
  MIC Values: 16 µg/mL
MRSA strains; strain N315
  MIC Values: 0.5 µg/mL
MRSA strains; strain NCTC 10442
  MIC Values: 2 µg/mL

## CN[C@H](CC(C)C)C(=O)N[C@H]1C(=O)N[C@@H](CC(N)=O)C(=O)N[C@H]2C(=O)N[C@H]3C(=O)N[C@H](C(=O)N[C@H](C(=O)O)c4cc(O)cc(O)c4-c4cc3ccc4O)[C@H](O)c3ccc(c(Cl)c3)Oc3cc2cc(c3O[C@@H]2O[C@H](CO)[C@@H](O)[C@H](O)[C@H]2O[C@H]2C[C@](C)(N)[C@H](O)[C@H](C)O2)Oc2ccc(cc2Cl)[C@H]1O [VCM, vancomycin]
VRSA strains
  MICs Range: 2 to 4 mg/L
Staph. aureus 29213; ATCC29213, read-out: MIC Values, strain ATCC 29213, control sample (Ex. 26)
  MIC: 1 µg/mL
Staph. aureus 29213; ATCC29213, read-out: MIC Values, strain ATCC29213, control sample (Ex. 37)
  MIC: 0.5 µg/mL
MRSA strains; MRSA strains (n = 38)
  MICs Range: 0.5 to 2 mg/L
MRSA strains; MRSA / NCTC 10442, read-out: MIC Values, strain NCTC 10442
  MIC: 1 µg/mL
MRSA strains; MRSA, read-out: MIC Values, strain 85/2082
  MIC: 1 µg/mL
MRSA strains; MRSA, read-out: MIC Values, strain 99.3700W
  MIC: 2 µg/mL
MRSA strains; MRSA, read-out: MIC Values, strain 99.3759V
  MIC: 2 µg/mL
MRSA strains; MRSA, read-out: MIC Values, strain AMC 11094
  MIC: 4 µg/mL
MRSA strains; MRSA, read-out: MIC Values, strain BM12612(new)
  MIC: 2 µg/mL
MRSA strains; MRSA, read-out: MIC Values, strain H1
  MIC: 0.5 µg/mL
MRSA strains; MRSA, read-out: MIC Values, strain HIP 5827
  MIC: 4 µg/mL
MRSA strains; MRSA, read-out: MIC Values, strain HIP 5836
  MIC: 4 µg/mL
MRSA strains; MRSA, read-out: MIC Values, strain HIP 6297
  MIC: 2 µg/mL
MRSA strains; MRSA, read-out: MIC Values, strain HIP 7737
  MIC: 4 µg/mL
MRSA strains; MRSA, read-out: MIC Values, strain JSCC 340
  MIC: 1 µg/mL
MRSA strains; MRSA, read-out: MIC Values, strain JSCC 351
  MIC: 1 µg/mL
MRSA strains; MRSA, read-out: MIC Values, strain JSCC 363
  MIC: 1 µg/mL
MRSA strains; MRSA, read-out: MIC Values, strain JSCC 381
  MIC: 1 µg/mL
MRSA strains; MRSA, read-out: MIC Values, strain JSCC 390
  MIC: 1 µg/mL
MRSA strains; MRSA, read-out: MIC Values, strain JSCC 401
  MIC: 1 µg/mL
MRSA strains; MRSA, read-out: MIC Values, strain JSCC 413
  MIC: 1 µg/mL
MRSA strains; MRSA, read-out: MIC Values, strain JSCC 431
  MIC: 0.5 µg/mL
MRSA strains; MRSA, read-out: MIC Values, strain JSCC 440
  MIC: 1 µg/mL
MRSA strains; MRSA, read-out: MIC Values, strain JSCC 451
  MIC: 1 µg/mL
MRSA strains; MRSA, read-out: MIC Values, strain JSCC 463
  MIC: 1 µg/mL
MRSA strains; MRSA, read-out: MIC Values, strain JSCC 481
  MIC: 1 µg/mL
MRSA strains; MRSA, read-out: MIC Values, strain JSCC 490
  MIC: 1 µg/mL
MRSA strains; MRSA, read-out: MIC Values, strain JSCC 501
  MIC: 1 µg/mL
MRSA strains; MRSA, read-out: MIC Values, strain JSCC 513
  MIC: 1 µg/mL
MRSA strains; MRSA, read-out: MIC Values, strain JSCC 531
  MIC: 1 µg/mL
MRSA strains; MRSA, read-out: MIC Values, strain JSCC 540
  MIC: 1 µg/mL
MRSA strains; MRSA, read-out: MIC Values, strain JSCC 551
  MIC: 0.5 µg/mL
MRSA strains; MRSA, read-out: MIC Values, strain JSCC 563
  MIC: 1 µg/mL
MRSA strains; MRSA, read-out: MIC Values, strain JSCC 581 (lacks the mecA gene)
  MIC: 1 µg/mL
MRSA strains; MRSA, read-out: MIC Values, strain JSCC 590 (lacks the mecA gene)
  MIC: 1 µg/mL
MRSA strains; MRSA, read-out: MIC Values, strain JSCC 601
  MIC: 0.5 µg/mL
MRSA strains; MRSA, read-out: MIC Values, strain JSCC 640
  MIC: 1 µg/mL
MRSA strains; MRSA, read-out: MIC Values, strain JSCC 651
  MIC: 1 µg/mL
MRSA strains; MRSA, read-out: MIC Values, strain JSCC 663
  MIC: 1 µg/mL
MRSA strains; MRSA, read-out: MIC Values, strain JSCC 681
  MIC: 1 µg/mL
MRSA strains; MRSA, read-out: MIC Values, strain JSCC 690
  MIC: 1 µg/mL
MRSA strains; MRSA, read-out: MIC Values, strain JSCC 701
  MIC: 1 µg/mL
MRSA strains; MRSA, read-out: MIC Values, strain JSCC 713
  MIC: 2 µg/mL
MRSA strains; MRSA, read-out: MIC Values, strain JSCC 731
  MIC: 0.5 µg/mL
MRSA strains; MRSA, read-out: MIC Values, strain JSCC 740
  MIC: 0.5 µg/mL
MRSA strains; MRSA, read-out: MIC Values, strain JSCC 751
  MIC: 0.5 µg/mL
MRSA strains; MRSA, read-out: MIC Values, strain JSCC 763
  MIC: 0.5 µg/mL
MRSA strains; MRSA, read-out: MIC Values, strain JSCC 781
  MIC: 2 µg/mL
MRSA strains; MRSA, read-out: MIC Values, strain JSCC 870
  MIC: 1 µg/mL
MRSA strains; MRSA, read-out: MIC Values, strain LIM 2
  MIC: 2 µg/mL
MRSA strains; MRSA, read-out: MIC Values, strain Mu 3
  MIC: 1 µg/mL
MRSA strains; MRSA, read-out: MIC Values, strain Mu 50
  MIC: 4 µg/mL
MRSA strains; MRSA, read-out: MIC Values, strain N315
  MIC: 0.5 µg/mL
